Test results: patent publication US12084680B2, “Methods for efficient derivation of human motor neurons from diverse spinal regions” (Wisconsin Alumni Research Foundation, priority 2016, dated 2024)

Tested on: H9 hESCs
Assay: Induction of NKX6.1+/PAX6+/OLIG2+ motor neuron progenitors from cervical neuromesoderm (flow cytometry, immunocytochemistry)
Format: cell-based, human
Experimental: To begin, we sequentially differentiated H9 hESCs in E6 media for 1 day, and FGF8b (200 ng/mL) for 1 day, and FGF8b and CHIR (3 μM) for 2 days to generate cervical neuromesoderm (FIGS. 5A-5B). Then, we screened the effects of CHIR, PM, and SHH treatment on NKX6.1^+/PAX6^+/OLIG2^+ motor neuron progenitor induction while transitioning to media containing 1 μM RA (FIGS. 5A-5D). Prior to the addition of RA, NKX6.1 was expressed in the cervical neuromesodermal state at day 4 (80±18% NKX6.1^+; data not shown), likely due to the CHIR-induced Wnt/β-catenin signaling (FIGS. 4A-4H). Transitioning the neuromesodermal progenitors to RA-containing media for 2 days induced HOXB4^+/HOXC6^+/HOXC9^−/HOXD10^−/PAX6^+ cervical neuroectoderm in all conditions (FIGS. 5B-5C), as expected. However, without co-activation of SHH signaling by PM or SHH, NKX6.1 expression was quickly lost by day 6 (97±1% PAX6^+, 17±3% NKX6.1^+) (FIG. 5C). […] To bolster this claim, we also analyzed the abundance of full-length GLI3 versus its truncated repressor form by western blot. […] Thus, Wnt/β-catenin signaling is necessary to induce ventral identity, but its continuous activation during OLIG2 induction by SHH signaling is detrimental to motor neuron differentiation, possibly due to activation of the GLI3 repressor.
Next, we tested conditions where CHIR was removed after transitioning to media containing RA (1 μM), PM (2 μM), and SHH (2 μg/mL) (FIGS. 5A-5C).
Since NKX6.1 is a pre-requisite to OLIG2 expression, we hypothesized that the Wnt/β-catenin signaling-dependent NKX6.1 expression levels may still be too low for efficient OLIG2^+ motor neuron progenitor induction. Therefore, the concentration of CHIR was boosted to 6 or 9 μM for 6 h immediately prior to transitioning to E6 medium containing RA, PM, and SHH without CHIR (FIG. 5A). The 9 μM CHIR boost followed by a transition to media containing 1 μM RA, 2 μM PM, and 2 μg/mL SHH yielded optimal motor neuron progenitor cultures with highly uniform NKX6.1, OLIG2, and PAX6 expression (96±1%, 85±9%, and 97±2%, respectively) (FIGS. 5C-5D).
hESCs were dissociated with accutase (Thermo Fisher Scientific) and reseeded at 1×10^5 cells/cm2 in E8 medium containing 10 μM ROCK inhibitor (Y27632; R&D Systems) on 6-well polystyrene tissue culture plates coated with 100 μg/mL poly-L-ornithine (PLO; Sigma) and 8 μg/well VTN-NC. The timelines and relevant growth factors/small molecules for all differentiation procedures are described in detail in the Results section and its accompanying figures. Cells were differentiated for various amounts of time in E6 medium containing the same insulin concentration as E8 medium as described above with varying combinations of soluble factors (product information and concentration ranges are found in Table 2). For neuromesodermal induction and HOX propagation, cells were sequentially cultured with FGF8b, CHIR99021 (CHIR), GDF11, and dorsomorphin (DM) as previously described. Briefly, to initiate the neuromesodermal state, cells were changed to E6 medium followed by addition of FGF8b (200 ng/ml) 24 h later. To generate cervical neuromesodermal progenitors, cells were washed with PBS, treated with accutase, and re-seeded in E6 medium containing 200 ng/ml FGF8b, 3 μM CHIR, and 10 μM Y27632 on VTN-NC-coated plates at a density of 1.5×10^5 cells/cm^2 for 48 h. To generate thoracic neuromesodermal progenitors, cells were passaged again after 72 h of CHIR treatment and re-seeded at different densities as described in the text.
Thoracic identity was reached after an additional 24 h. Then, to reach the lumbosacral level, cells were given 30 ng/ml GDF11 and 1 μM DM for an additional 48 h. For neuroectoderm induction and generation of OLIG2^+ progenitors, FGF8b was removed at the designated time points and the concentration of CHIR was increased for 6 h as described in the text, followed by a transition to media containing RA, PM, and SHH for a period of 48 h. […]

[1] = 9 μM CHIR boost 6 h, then 1 μM RA, 2 μM PM, 2 μg/mL SHH without CHIR, day 6
[2] = CHIR continued at 3 μM with RA, PM 2 μM, SHH 2 μg/mL, day 6
[3] = CHIR continued at 6 μM with RA, PM, SHH, day 6

`Cc1c[nH]c(-c2cnc(NCCNc3ccc(C#N)cn3)nc2-c2ccc(Cl)cc2Cl)n1` [CHIR, CHIR99021] showed an NKX6.1 expression [1] of 96±1%, an OLIG2 expression [1] of 85±9% and a PAX6 expression [1] of 97±2%. For the same compound, the “NKX6.1 and PAX6/SOX2 neuroectoderm marker expression” value [2] was “uniformly expressed”, the OLIG2 induction [2] was “minimal OLIG2 was induced” and the OLIG2 induction [3] was “OLIG2 was still not induced”. The PAX6 expression [3] was “PAX6 expression was diminished”, the PAX7 detection [3] was “no PAX7 was detected” and the “NKX6.1+ cells in cervical neuromesodermal state” value (FGF8b 200 ng/mL and CHIR 3 μM for 2 days, day 4, before RA) was 80±18%.
